# Legend:
# ErbB2 or EGFR = biological target: T1, ErbB2 or EGFR; assay: ErbB family substrate phosphorylation enzyme assay (HTRF), Method A or Method B; type: biochemical
# T1 construct: enzymes purified from a baculovirus expression system; Reagent production was conducted essentially as described in Brignola, P. S., et al, (2002) J. Biol. Chem. 277(2): 1576-1585
# Outline: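 Baculovirus-expressed EGFR or ErbB2 (0.8 or 10 nM in enzyme mix) phosphorylates biotinylated Peptide C with 20 µM ATP and 0.8 µM peptide (substrate-mix levels), MnCl2, pH 7.5. Reaction ran 90 min at 20 °C with EDTA stop and HTRF anti-phosphotyrosine read. Method A: enzyme added last; Method B: 1 h enzyme–compound preincubation.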
# [1] = test system: BT474 and HN5 tumor cell lines; assay: Methylene blue growth inhibition assay (cellular Method A); type: cell-based, Human; conditions: Homo sapiens, BT-474, 72 h, 3 days, read-out: Activity (Method): growth inhibition IC50 class
# Outline: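 Growth inhibition measured by methylene blue staining of biomass (OD 620) after 3 days' compound exposure at 37° C, final DMSO 0.3%. Cell lines: BT474 (10,000/well), HN5 (3,000/well) and Colo205, all in DMEM with 10% FBS; IC50 fitted by nonlinear regression against vehicle-treated wells.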
# Colo205 tumor cell lines = assay: Methylene blue growth inhibition assay (cellular Method A), Colo205; type: cell-based, Human; conditions: Homo sapiens, COLO 205, 72 h, 3 days, read-out: Activity (Method): growth inhibition IC50 class
# Experimental: Human breast (BT474) and head and neck (HN5) were cultured in low glucose DMEM (Life Technologies 12320-032) containing 10% fetal bovine serum (FBS). Human colon tumor cells (Colo205) were cultured in DMEM (Invitrogen, 10564) containing 10% FBS. The SV40 transformed human mammary epithelial cell line HB4a was transfected with either human H-ras cDNA (HB4a r4.2) or the human c-ErbB2 cDNA (HB4a c5.2). The HB4a clones were cultured in RPMI containing 10% FBS, insulin (5 g/mL), hydrocortisone (5 g/mL), supplemented with the selection agent hygromycin B (50 g/mL). All lines were grown in a humidified incubator at 37° C. in 95% air, 5% CO2. Cells were harvested using trypsin/EDTA, counted using a haemocytometer, and plated in 100 microliters of the appropriate media, at the following densities, in a 96-well tissue culture plate (Falcon 3075): BT474 10,000 cells/well, HN5 3,000 cells/well. The next day, compounds were diluted in DMEM containing […] gentamicin, at twice the final required concentration, from 10 mM stock solutions in DMSO. 100 microliters/well of these dilutions were added to the 100 microliters of media currently on the cell plates. Medium containing 0.6% DMSO was added to control wells. Compounds diluted in DMEM were added to all cell lines. The final concentration of DMSO in all wells was 0.3%. Cells were returned to the incubator (37° C., 10% CO2) for 3 days. Medium was then removed by aspiration. Cell biomass was estimated by staining cells with 90 microliters per well methylene blue (Sigma M9140, 0.5% in 1:1 ethanol:water), and incubation at rt for at least 30 minutes. Stain was removed, and the plates rinsed by immersion in deionized water and air-dried. To release stain from the cells 100 microliters of solubilization solution was added (1% N-lauroyl sarcosine, Sodium salt, Sigma L5125, in PBS), and plates were shaken gently for about 30 minutes. Optical density at 620 nm was measured on a microplate reader. Percent inhibition of cell growth was calculated relative to vehicle treated control wells. Concentration of compound that inhibits 50% of control cell growth (IC50) was interpolated using nonlinear regression (Levenberg-Marquardt) and the equation, y=Vmax*(1−(x/(K+x)))+Y2, where “K” was equal to the IC50. Method B: Celltiter Glo® Growth Inhibition Assays
# [2] = Method A: substrate mix added first, reaction started with enzyme mix
# [3] = Method B: enzyme mix pre-incubated with compound 1 hour at 20° C., started with substrate mix
IC50 [1],IC50 (Colo205 tumor cell lines),Compound,Activity (Method): pIC50 class against ErbB2 or EGFR (ErbB2 or EGFR; [2]),Activity (Method): pIC50 class against ErbB2 or EGFR (ErbB2 or EGFR; [3])
< 100 nM,100 to 1000 nM,"O=C(Nc1cccc(-c2nn3ccccc3c2-c2ccnc(Nc3ccc4c(c3)OCCO4)n2)c1)c1ccccc1 [Example 4, N-(3-{3-[2-(2,3-Dihydro-benzo[1,4]dioxin-6-ylamino)-pyrimidin-4-yl]-pyrazolo[1,5-]pyridin-2-yl}-phenyl)-benzamide]",+++ (A) (at least one pIC50 measurement of greater than 7 against either ErbB2 or EGFR),
100 to 1000 nM,> 1000 nM,"COc1cccc(C(=O)Nc2cccc(-c3nn4ccccc4c3-c3ccnc(Nc4ccc5c(c4)OCCO5)n3)c2)c1 [Example 5, N-(3-{3-[2-(2,3-Dihydro-benzo[1,4]dioxin-6-ylamino)-pyrimidin-4-yl]-pyrazolo[1,5]-pyridin-2-yl}-phenyl)-3-methoxy-benzamide]",+++ (A) (at least one pIC50 measurement of greater than 7 against either ErbB2 or EGFR),
100 to 1000 nM,> 1000 nM,"O=C(Nc1cccc(-c2nn3ccccc3c2-c2ccnc(Nc3cccc(F)c3)n2)c1)c1cc(F)ccc1Cl [Example 11, 2-Chloro-5-fluoro-N-(3-{3-[2-(3-fluoro-phenylamino)-pyrimidin-4-yl]-pyrazolo[1,5-a]pyridin-2-yl}-phenyl)-benzamide]",,+++ (B) (at least one pIC50 measurement of greater than 7 against either ErbB2 or EGFR)
100 to 1000 nM,> 1000 nM,"O=C(Nc1cccc(-c2nn3ccccc3c2-c2ccnc(Nc3cccc(F)c3)n2)c1)c1cccs1 [Example 25, N-[3-(3-{2-[(3-fluorophenyl)amino]-4-pyrimidinyl}pyrazolo[1,5-a]pyridin-2-yl)phenyl]-2-thiophenecarboxamide]",,+++ (B) (at least one pIC50 measurement of greater than 7 against either ErbB2 or EGFR)
< 100 nM,100 to 1000 nM,"COc1cccc(Nc2nccc(-c3c(-c4cccc(NC(=O)c5c(F)cccc5F)c4)nn4ccccc34)n2)c1 [Example 28, 2,6-Difluoro-N-{3-[3-(2-{[3-(methyloxy)phenyl]-amino}-4-pyrimidinyl)pyrazolo[1,5-a]pyridin-2-yl]phenyl}benzamide]",,+++ (B) (at least one pIC50 measurement of greater than 7 against either ErbB2 or EGFR)
< 100 nM,> 1000 nM,"COc1ccc(Nc2nccc(-c3c(-c4cccc(NC(=O)c5c(F)cccc5F)c4)nn4ccccc34)n2)cc1F [Example 29, 2,6-Difluoro-N-{3-[3-(2-{[3-fluoro-4-(methyloxy)-phenyl]amino}-4-pyrimidinyl)pyrazolo[1,5-a]pyridin-2-yl]phenyl}benzamide]",++ (A) (at least one pIC50 measurement greater than 6 against either ErbB2 or EGFR but no measurement greater than pIC50 of 7),
< 100 nM,100 to 1000 nM,"O=C(Nc1cccc(-c2nn3ccccc3c2-c2ccnc(Nc3ccc4nn[nH]c4c3)n2)c1)c1c(F)cccc1F [Example 31, N-(3-{3-[2-(1H-1,2,3-benzotriazol-5-ylamino)-4-pyrimidinyl]pyrazolo[1,5-a]pyridin-2-yl}phenyl)-2,6-difluorobenzamide]",,+++ (B) (at least one pIC50 measurement of greater than 7 against either ErbB2 or EGFR)
< 100 nM,100 to 1000 nM,"CN(C)CCCNc1ccc(Nc2nccc(-c3c(-c4cccc(NC(=O)c5c(F)cccc5F)c4)nn4ccccc34)n2)cc1F [Example 41, N-[3-(3-{2-[(4-{[3-(dimethylamino)propyl]amino}-3-fluorophenyl)amino]-4-pyrimidinyl}pyrazolo[1,5-a]pyridin-2-yl)phenyl]-2,6-difluorobenzamide]",,+++ (B) (at least one pIC50 measurement of greater than 7 against either ErbB2 or EGFR)
< 100 nM,> 1000 nM,"CN1CCN(CCCNc2ccc(Nc3nccc(-c4c(-c5cccc(NC(=O)c6c(F)cccc6F)c5)nn5ccccc45)n3)cc2F)CC1 [Example 42, 2,6-Difluoro-N-[3-(3-{2-[(3-fluoro-4-{[3-(4-methyl-1-piperazinyl)propyl]amino}phenyl)amino]-4-pyrimidinyl}pyrazolo[1,5-a]pyridin-2-yl)phenyl]benzamide]",,+++ (B) (at least one pIC50 measurement of greater than 7 against either ErbB2 or EGFR)
100 to 1000 nM,> 1000 nM,"O=C(Nc1cccc(-c2nn3ccccc3c2-c2ccnc(Nc3ccccc3)n2)c1)c1cc(F)ccc1F [Example 43, 2,5-Difluoro-N-(3-{3-[2-(phenylamino)-4-pyrimidinyl]pyrazolo[1,5-a]pyridin-2-yl}phenyl)benzamide]",+++ (A) (at least one pIC50 measurement of greater than 7 against either ErbB2 or EGFR),
< 100 nM,100 to 1000 nM,"O=C(Nc1cccc(-c2nn3ccccc3c2-c2ccnc(Nc3cccc(-c4cnco4)c3)n2)c1)c1cc(F)ccc1F [Example 44, 2,5-Difluoro-N-{3-[3-(2-{[3-(1,3-oxazol-5-yl)phenyl]amino}-4-pyrimidinyl)pyrazolo[1,5-a]pyridin-2-yl]phenyl}benzamide]",+++ (A) (at least one pIC50 measurement of greater than 7 against either ErbB2 or EGFR),
< 100 nM,100 to 1000 nM,"O=C(Nc1cccc(-c2nn3ccccc3c2-c2ccnc(Nc3ccc(N4CCOCC4)cc3)n2)c1)c1cc(F)ccc1F [Example 45, 2,5-Difluoro-N-{3-[3-(2-{[4-(4-morpholinyl)phenyl]amino}-4-pyrimidinyl)pyrazolo[1,5-a]pyridin-2-yl]phenyl}benzamide]",+++ (A) (at least one pIC50 measurement of greater than 7 against either ErbB2 or EGFR),
> 1000 nM,> 1000 nM,"COc1ccc(Nc2nccc(-c3c(-c4cccc(NC(=O)c5cc(F)ccc5F)c4)nn4ccccc34)n2)cc1F [Example 46, 2,5-Difluoro-N-{3-[3-(2-{[3-fluoro-4-(methyloxy)phenyl]amino}-4-pyrimidinyl)pyrazolo[1,5-a]pyridin-2-yl]phenyl}benzamide]",,+ (B) (no pIC50 measurement greater than 6 against either ErbB2 or EGFR)
100 to 1000 nM,> 1000 nM,"CC(=O)Nc1cccc(Nc2nccc(-c3c(-c4cccc(NC(=O)c5cc(F)ccc5F)c4)nn4ccccc34)n2)c1 [Example 47, N-{3-[3-(2-{[3-(acetylamino)phenyl]amino}-4-pyrimidinyl)pyrazolo[1,5-a]pyridin-2-yl]phenyl}-2,5-difluorobenzamide]",+++ (A) (at least one pIC50 measurement of greater than 7 against either ErbB2 or EGFR),
100 to 1000 nM,> 1000 nM,"O=C(Nc1cccc(-c2nn3ccccc3c2-c2ccnc(Nc3ccc(N4CCCC4=O)cc3)n2)c1)c1cc(F)ccc1F [Example 50, 2,5-Difluoro-N-{3-[3-(2-{[4-(2-oxo-1-pyrrolidinyl)phenyl]amino}-4-pyrimidinyl)pyrazolo[1,5-a]pyridin-2-yl]phenyl}benzamide]",+++ (A) (at least one pIC50 measurement of greater than 7 against either ErbB2 or EGFR),
< 100 nM,100 to 1000 nM,"O=C(Nc1cccc(-c2nn3ccccc3c2-c2ccnc(Nc3cccc(CCN4CCOCC4)c3)n2)c1)c1c(F)cccc1F [Example 54, 2,6-Difluoro-N-(3-{3-[2-({3-[2-(4-morpholinyl)ethyl]-phenyl}amino)-4-pyrimidinyl]pyrazolo[1,5-a]pyridin-2-yl}phenyl)benzamide]",+++ (A) (at least one pIC50 measurement of greater than 7 against either ErbB2 or EGFR),

# — patent US7812022B2 (GlaxoSmithKline LLC, priority 2004, dated 2010)
